In data set [1] the test system is HASMC. Briefly: Inhibition of PDGF-induced DNA synthesis in human HASMC assessed as decrease in [3H]thymidine incorporation after 20 hrs by microplate scintillation analysis. Format: functional, cell-based. A general note: Uptake of a labelled nucleoside into DNA is a usual measure of proliferation.
Data set [2] deals with HASMC. As to the kind of experiment: Inhibition of PDGF-induced actin filament dissociation in human HASMC at 2 to 4 uM after 24 hrs by Rhodamine-Phalloidin staining based fluorescence microscopy. Format: functional, cell-based.
Data set [3] concerns HASMC. As to the kind of experiment: Inhibition of PDGF-induced cyclin D1 expression in human HASMC at 2 to 4 uM after 24 hrs by Western blot analysis. Type of data set: functional, cell-based. For orientation: A western blot detects proteins with antibodies after separation by electrophoresis.
Data set [4] relates to HASMC. Briefly: Increase in p21 expression in PDGF-stimulated human HASMC at 2 to 4 uM after 24 hrs by Western blot analysis. Format: functional, cell-based.
For data set [5], the system named is HASMC. Briefly: Cell cycle arrest in PGDF-stimulated human HASMC assessed as proportion of cells in S phase at 4 uM treated for 6 hrs prior to incubation with PDGF measured after 24 hrs by propidium iodide staining based flow cytometry (reference value: 20.8%). Format: functional.
Data set [6] concerns HASMC. Briefly: Increase in p27 expression in PDGF-stimulated human HASMC at 2 to 4 uM after 24 hrs by Western blot analysis. Format: functional, cell-based.
Data set [7] concerns HASMC. As to the kind of experiment: Inhibition of PDGF-induced cyclin E expression in human HASMC at 2 to 4 uM after 24 hrs by Western blot analysis. Format: functional, cell-based.
Data set [8] deals with Platelet-derived growth factor receptor beta (Homo sapiens) (UniProt P09619). Briefly: Inhibition of PDGFRbeta in human HASMC assessed as decrease in PDGF-induced Akt phosphorylation at 1 to 4 uM after 5 to 15 mins by Western blot analysis.
Data set [9] concerns HASMC. Briefly: Cell cycle arrest in PGDF-stimulated human HASMC assessed as proportion of cells in S phase at 1 uM treated for 6 hrs prior to incubation with PDGF measured after 24 hrs by propidium iodide staining based flow cytometry (reference value: 20.8%). Format: functional. For orientation: In flow cytometry, cells or beads pass a laser one at a time.
For data set [10], the system named is HASMC. As to the kind of experiment: Cytotoxicity against human HASMC assessed as effect on cell migration at 4 uM after 24 hrs by modified boyden chamber analysis. Format: cell-based.
For data set [11], the system named is HASMC. Briefly: Inhibition of PDGF-induced human HASMC migration at 4 uM after 24 hrs by modified boyden chamber analysis. Type of data set: functional, cell-based.
The test system of data set [12] is HASMC. Briefly: Inhibition of PDGF-induced CDK2 expression in human HASMC at 2 to 4 uM after 24 hrs by Western blot analysis. Type of data set: functional, cell-based.
In data set [13] the target is Platelet-derived growth factor receptor beta (Homo sapiens) (UniProt P09619). As to the kind of experiment: Inhibition of PDGF-induced PDGFRbeta phosphorylation in human HASMC after 5 to 15 mins by Western blot analysis.
Data set [14] deals with HASMC. As to the kind of experiment: Cell cycle arrest in PGDF-stimulated human HASMC assessed as proportion of cells in S phase at 2 uM treated for 6 hrs prior to incubation with PDGF measured after 24 hrs by propidium iodide staining based flow cytometry (reference value: 20.8%). Format: functional.
For data set [15], the system named is HASMC. Briefly: Inhibition of PDGF-induced CDK4 expression in human HASMC at 2 to 4 uM after 24 hrs by Western blot analysis. Type of data set: functional, cell-based.
Data set [16] concerns the target Platelet-derived growth factor receptor beta (Homo sapiens) (UniProt P09619). Briefly: Inhibition of PDGFRbeta in human HASMC assessed as decrease in PDGF-induced ERK1/2 phosphorylation at 1 to 4 uM after 5 to 15 mins by Western blot analysis.
In data set [17] the test system is HASMC. Briefly: Cytotoxicity against human HASMC assessed as effect on cell vaibility at 0.5 to 4 uM after 24 hrs by MTT assay. Format: cell-based.
In data set [18] the test system is HASMC. Briefly: Inhibition of PDGF-induced human HASMC proliferation after 24 hrs by trypan blue dye exclusion assay. Format: functional, cell-based.
Data set [19] deals with Platelet-derived growth factor receptor beta (Homo sapiens) (UniProt P09619). Briefly: Inhibition of PDGFRbeta in human HASMC assessed as decrease in PDGF-induced PLC-gamma1 phosphorylation at 1 to 4 uM after 5 to 15 mins by Western blot analysis.

pIC50: −log10 of the molar value. Calls of active or inactive are those of the source. The calls are words filed in the database; no cut-off is given here.

The source of these data is ChEMBL document CHEMBL2346516, “Sponge-derived acetylenic alcohols, petrosiols, inhibit proliferation and migration of platelet-derived growth factor (PDGF)-induced vascular smooth muscle cells” (Bioorg Med Chem, 2013).

Platelet-derived growth factor receptor beta (Homo sapiens), sequence (P09619 whole entry): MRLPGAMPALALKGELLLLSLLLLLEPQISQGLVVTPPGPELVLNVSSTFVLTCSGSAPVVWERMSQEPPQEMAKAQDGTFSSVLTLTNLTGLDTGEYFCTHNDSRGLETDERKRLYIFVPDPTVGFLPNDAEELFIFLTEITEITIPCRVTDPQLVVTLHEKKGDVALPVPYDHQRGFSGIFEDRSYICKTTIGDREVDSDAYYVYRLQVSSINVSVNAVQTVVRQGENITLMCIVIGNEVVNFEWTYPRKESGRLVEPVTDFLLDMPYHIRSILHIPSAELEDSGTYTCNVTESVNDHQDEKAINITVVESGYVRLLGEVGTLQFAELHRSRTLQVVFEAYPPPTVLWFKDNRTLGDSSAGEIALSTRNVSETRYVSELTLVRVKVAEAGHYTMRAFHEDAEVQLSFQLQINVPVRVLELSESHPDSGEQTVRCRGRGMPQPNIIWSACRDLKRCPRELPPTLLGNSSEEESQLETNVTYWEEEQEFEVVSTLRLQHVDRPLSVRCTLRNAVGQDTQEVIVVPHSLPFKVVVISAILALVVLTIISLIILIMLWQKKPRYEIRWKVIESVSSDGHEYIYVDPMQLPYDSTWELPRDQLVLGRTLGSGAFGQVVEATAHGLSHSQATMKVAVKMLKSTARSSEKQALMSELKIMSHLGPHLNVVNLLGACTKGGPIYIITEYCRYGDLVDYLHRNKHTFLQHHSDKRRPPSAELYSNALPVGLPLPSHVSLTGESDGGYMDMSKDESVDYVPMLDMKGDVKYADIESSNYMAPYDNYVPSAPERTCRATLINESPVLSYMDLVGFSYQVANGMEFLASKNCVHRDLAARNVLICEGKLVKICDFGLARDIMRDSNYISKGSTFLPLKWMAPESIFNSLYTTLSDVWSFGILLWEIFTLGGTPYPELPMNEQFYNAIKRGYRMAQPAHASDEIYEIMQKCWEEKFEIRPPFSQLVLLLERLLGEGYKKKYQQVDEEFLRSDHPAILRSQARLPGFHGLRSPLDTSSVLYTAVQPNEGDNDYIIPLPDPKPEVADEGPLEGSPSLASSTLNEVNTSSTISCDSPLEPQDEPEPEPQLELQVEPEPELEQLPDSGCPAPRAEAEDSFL

As to `C#C/C=C\CCCCCCCCCC/C=C\CCCCCCC[C@H](O)[C@@H](O)[C@H](O)C#CC#CCO` [PETROSIOL C], in the data set with HASMC [1], the negative-log IC50 (pIC50) – broadly, the negative decadic logarithm of the IC50, by convention in mol/L – is 6.14 and the inhibition entry was “Dose-dependent effect”.

In the case of `CC(C)CCCCCC/C=C\CCCCCCCCC[C@@H](O)C#CC#CCO` [STRONGYLODIOL C], in the data set with HASMC [1], the pIC50 is 5.96 and the inhibition entry is “Dose-dependent effect”.

`CC(C)CCCCCCC#CCCCCCCCCC[C@@H](O)C#CC#CCO` [STRONGYLODIOL D]: in the data set with HASMC [1], the pIC50 was 5.66 and the inhibition result was “Dose-dependent effect”.

For the compound `CCCCCCCC/C=C\CCCCCCC[C@H](O)[C@@H](O)[C@H](O)C#CC#CCO` [PETROSIOL A], the inhibition result (in the data set on HASMC [2]; in the data set with HASMC [3]; with HASMC [7]; in [8]; with HASMC [11]; in the data set on HASMC [12]) was “Active” throughout. The inhibition result (with HASMC [15]; in [16]; in data set [19]) was “Active” throughout. The outcome in the data set on HASMC [4] and in the data set with HASMC [6] was Active. For the same compound, the pIC50 in the data set with HASMC [1] is 6.14; in the data set with HASMC [18], 6.00. The inhibition entry (with HASMC [1]; in [13]; with HASMC [18]) was “Dose-dependent effect” in each case. The Activity in the data set on HASMC [5] is reported as 7.5%; with HASMC [9] it was 17.7%; in the data set with HASMC [10], “Non-toxic”; with HASMC [14] it was 10.1%; in the data set with HASMC [17], “Non-toxic”.

Turning to `CC(C)CCCCCC/C=C\CCCCCCC[C@H](O)[C@@H](O)[C@H](O)C#CC#CCO` [PETROSIOL B], in the data set with HASMC [1], the pIC50 is 6.15 and the inhibition entry was “Dose-dependent effect”.

As to `CCCCCCCCC/C=C\CCCCCCC[C@H](O)[C@@H](O)[C@H](O)C#CC#CCO` [PETROSIOL D], in the data set with HASMC [1], the pIC50 was 6.16 and the inhibition result is “Dose-dependent effect”.
